Experiments:
[1] = test system: ERCC3 expression in ERCC3 mutant tumors; assay: Real time PCR of ERCC3 transcript in xenograft tumors; type: in vivo, athymic nude mice; settings: two treatment cycles of Irofulven
[2] = test system: ERCC3 R109X HMLE HRAS-V12 tumors; assay: Mouse xenograft model, ERCC3 R109X mutant tumors; type: in vivo, athymic nude mice
Method: (§1) To assess the effect of the ERCC3 R109X mutation on Irolfulven sensitivity in vivo, a tumor xenograft system was generated and used. As described above, ERCC3 WT and ERCC3-mutant (R109X) cells were made in an HMLE HRAS-V12 background. These cells were injected into the flanks of athymic nude mice. The resultant tumors were allowed to grow to a size of about 100 mm^3. Treatment was then started. Either a vehicle control or Irofulven (at a dose of either 3.5 mg/kg or 7 mg/kg) was injected intraperitoneally (IP) daily for 5 consecutive days (the treatment “on” time), followed by a period of 16 days of treatment “off” time—making one 21-day cycle. Treatment cycles were then repeated. This treatment regimen was similar to that employed in several reported human clinical trials of Irofulven. The size of the tumors was measured weekly. […] In the ERCC3 WT xenograft group the average tumor size at treatment initiation was 97.7 mm^3 (74.6-120.3 mm^3). In the ERCC3 R109X xenograft group the average tumor size at treatment initiation was 172.8 mm^3 (101.8-238.6 mm^3). […] Additional experiments are underway to further validate these preliminary findings.

[3] = test system: ERCC3 WT HMLE HRAS-V12 tumors; assay: Mouse xenograft model, ERCC3 WT tumors; type: in vivo, athymic nude mice; settings: 3.5 mg/kg or 7 mg/kg IP daily for 5 days per 21-day cycle
Method: as §1

[4] = test system: R109X H-RAS-V12 HMLE cells vs WT H-RAS-V12 HMLE cells; assay: Cell viability after Irofulven, hRAS-V12 expressing ERCC3 WT vs R109X HMLE cells; type: cell-based, human; settings: 72 hours, increasing doses, hRAS-V12 HMLE R109X heterozygous
Method: (§2) For viability assessment following treatment with IlludinS (Cayman Chemical), cells were seeded into 96 well plates 24 hours prior to treatment. For post-UV viability assays, cells were exposed to the appropriate doses of UV irradiation and subsequently seeded into 96 well plates. Cell viability was measured after 72 hours using the CellTiter-Glo® Luminescent Cell Viability Assay (Promega).
(§3) In vitro experiments were performed to compare the effects of Irofulven on cell viability of ERCC3 WT HMLE cells and CRISPR-edited HMLE cells heterozygous for the ERCC3 R109X mutation. These same cell lines were used in Example 1 to assess sensitivity to IlludinS. Cell viability was assessed 72 hours following treatment of the cells with increasing doses of Irofulven. FIG. 11A provides the results in graphical form. Similar experiments were also performed using cells similar to those described above (i.e. that were either ERCC3 WT or R109X) but that also stably expressed mutant hRAS-V12. (These hRAS-V12 cells were used for xenograft generation in the in vivo experiments described below). FIG. 11B provides results showing the effects of Irofulven on cell viability of the +/+WT H-RAS-V12 HMLE cells the heterozygous+/−R109X H-RAS-V12 HMLE cells. The data shown in both FIG. 11A and FIG. 11B represents the mean of three experiments with error bars representing the SEM.

[5] = test system: HMLE+/R109X cells vs HMLE+/+ cells; assay: Cell viability after Irofulven, ERCC3 WT vs R109X heterozygous HMLE cells; type: cell-based, human; settings: 72 hours, increasing doses
Method: as §2, §3

[6] = test system: XPCS2BA cells stably overexpressing ERCC3 R109X; assay: Cell viability after IlludinS, cells overexpressing the ERCC3 R109X mutant (CellTiter-Glo); type: cell-based, human
Method: (§4) To understand whether this variant has a deleterious effect on the gene function, we carried out a series of in vitro functional assays. Using a previously well characterized ERCC3 deficient cell line derived from an XP/CS patient (7), phenotype rescue after DNA damage was assessed by cell viability assay. […] Similarly, following UVC irradiation at a dose of 10 J/m^2, 72 hours post-exposure, 42% of the R109X cells survived compared to 63% of WT cells (P<0.0001). At a dose of […], these numbers reduced more drastically for the mutant, showing the same trend as the IlludinS exposure experiment. (FIG. 2D).
as §2

[7] = test system: XPCS2BA cells stably overexpressing ERCC3 WT; assay: Cell viability after IlludinS, cells overexpressing wild-type ERCC3 (CellTiter-Glo); type: cell-based, human
Method: as §4, §2

[8] = test system: γ-H2AX in HMLE control and ERCC3 CRISPR edited cell lines; type: cell-based, human; settings: 8 ng/ml IlludinS for 1 h; ERCC3 CRISPR mutants vs wild type, P<0.05
Method: To assess the induction and removal of phosphorylated H2AX in response to DNA damage we performed immunostaining and flow cytometric analysis of γ-H2AX positive cells following treatment with IlludinS.
For flow cytometric analysis, 24 h after seeding, cells were either left untreated or were treated with 8 ng/ml IlludinS for 1 h. Treated cells were subsequently washed with PBS and supplemented with drug-free medium. The cells were harvested at different time points after treatment and fixed with 4% PFA for 10 min at RT. Cells were quickly chilled on ice and ice-cold MeOH was added to a final concentration of 90%. The cells were incubated on ice for 30 min and stored at −20° C. For immunostaining the cells were washed twice with PBS/0.5% BSA and incubated with anti phospho-Histone H2A.X (Ser139) Antibody (1:250; Cell Signaling Technology) for 1 h at RT, washed again and incubated with Alexa-488 conjugated secondary antibody for 45 min at RT. For each condition 20.000 cells were recorded and data from two replicate experiments was analyzed using the FlowJo software (V10.1).

parental HMLE cells = assay: Cell viability after IlludinS, parental mammary epithelial cells; type: cell-based, human; settings: 2 ng/ml IlludinS, 72 hours
Method: (§5) Overexpression of ERCC3 mutant constructs […] physiological levels of protein in a germline heterozygous mutation state within cells. Therefore, using CRISPR/Cas9, we engineered several heterozygous mutations in the mammary epithelial cell line HMLE that mimic the site of the originally discovered recurrent mutation in breast cancer individuals (Table 3, FIG. 4).
as §2

[9] = test system: CRISPR edited HMLE cell lines (ERCC3 heterozygous mutants); assay: Cell viability after IlludinS, CRISPR/Cas9 edited ERCC3 heterozygous mutant cells; type: cell-based, human
Method: as §5, §2

[10] = test system: XPCS2BA parental cell line; assay: Cell viability after IlludinS, parental ERCC3-deficient cell line (CellTiter-Glo); type: cell-based, human
Method: as §4, §2

With `CC1=C(CO)C2=C(C)C3(CC3)[C@@](C)(O)C(=O)C2=C1` [Irofulven, 6-hydroxymethylacylfulvene] the “ERCC3 expression (relative transcript level)” value [1] was “upregulated”, the tumor growth ([2]; 3.5 mg/kg or 7 mg/kg IP daily for 5 days per 21-day cycle) was “significant reduction” and the “sensitivity to tumor inhibitory effects compared to ERCC3 WT tumors” value ([2]; preliminary studies) was “may have been more sensitive”. The tumor growth [3] was “significant reduction”, the “sensitivity to Irofulven (inhibition of cell viability) vs ERCC3 WT cells” value [4] was “much more sensitive” and the “sensitivity to Irofulven (inhibition of cell viability) vs ERCC3 WT cells” value [5] was “much more sensitive”.
`CC1=C2C(=C[C@@](C)(CO)[C@@H]2O)C(=O)[C@](C)(O)C12CC2` [IlludinS, Illudin S] was tested, and the cells survived ([6]; 2 ng/ml IlludinS, 72 hours, R109X overexpressing XPCS2BA) was 42%, the “cell death compared to ERCC3 WT” value ([6]; increasing doses of IlludinS, R109X overexpressing cells) was “significantly higher cell death” and the cells survived ([7]; 2 ng/ml IlludinS, 72 hours) was 77%. For the same compound, the cell survival ([7]; 4 ng/ml IlludinS) was “most of the WT cells survived”, the “reduction in γ-H2AX after DNA damage” value [8] was “significantly lower” and the cell survival (parental HMLE cells) was “all the parental HMLE cells survived”. The cell survival ([9]; 2 ng/ml IlludinS, 72 hours, CRISPR edited HMLE, P<0.0001) was “significantly reduced survival”, the relative cell viability ([9]; 72 hours after exposure to IlludinS, ERCC3 CRISPR clones) was “substantial reduction in relative cell viability” and the “response to IlludinS after stable overexpression of WT ERCC3 (rescue)” value ([9]; ERCC3 CRISPR cell lines re-expressing WT ERCC3) was “same response to IlludinS as the WT HMLE cell line”. For the same compound, the cells survived ([10]; 2 ng/ml IlludinS, 72 hours, XPCS2BA) was 3% and the cell death ([10]; higher doses of IlludinS, untransfected cells) was “all died”.
